Experimental findings from patent publication US5364877A, “Indole derivatives as 5-lipoxygenase inhibitors” (ICI Pharma, priority 1990, dated 1994) are described below.

SMILES strings stand for the structures.

This experiment addresses T1, 5-LO (Rattus norvegicus, UniProt P12527).
T1 construct: liberation of LTB4 induced by zymosan within an air pouch generated within the subcutaneous tissue of the back of male rats; endogenous in cells; host or cells: cells in the air pouch of living male rats (in vivo)
T1 sequence (P12527 1-673): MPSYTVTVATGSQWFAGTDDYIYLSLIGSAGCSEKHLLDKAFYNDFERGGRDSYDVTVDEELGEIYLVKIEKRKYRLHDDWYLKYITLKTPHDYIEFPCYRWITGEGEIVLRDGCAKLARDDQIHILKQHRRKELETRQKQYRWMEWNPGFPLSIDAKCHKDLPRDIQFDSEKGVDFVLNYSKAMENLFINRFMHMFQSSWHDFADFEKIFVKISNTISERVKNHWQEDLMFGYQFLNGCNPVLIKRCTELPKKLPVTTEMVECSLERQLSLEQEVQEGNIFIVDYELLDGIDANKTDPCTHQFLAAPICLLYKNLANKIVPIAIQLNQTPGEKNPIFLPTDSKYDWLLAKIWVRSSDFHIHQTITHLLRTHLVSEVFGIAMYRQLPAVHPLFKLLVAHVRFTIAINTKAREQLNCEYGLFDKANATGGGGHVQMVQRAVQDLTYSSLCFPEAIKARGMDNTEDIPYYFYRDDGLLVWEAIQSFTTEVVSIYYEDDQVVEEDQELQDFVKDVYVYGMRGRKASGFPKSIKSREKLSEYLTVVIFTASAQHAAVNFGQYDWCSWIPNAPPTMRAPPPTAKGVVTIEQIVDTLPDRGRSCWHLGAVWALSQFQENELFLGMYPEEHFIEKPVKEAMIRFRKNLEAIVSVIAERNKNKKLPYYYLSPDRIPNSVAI
Description: Test g) zymosan-induced liberation of LTB4 within an air pouch in male rats. It is filed as in vivo. As to conditions: rat, 3 h; test g), oral. The protocol: g) An in vivo system involving measuring the effects of a test compound administered orally against the liberation of LTB4 induced by zymosan within an air pouch generated within the subcutaneous tissue of the back of male rats. The rats are anaesthetised and air pouches are formed by the injection of sterile air (20 ml). A further injection of air (10 ml) is similarly given after 3 days. At 6 days after the initial air injection the test compound is administered (usually orally as the suspension produced when a solution of the test compound in dimethylsulphoxide is added to hydroxypropylmethylcellulose), followed by the intrapouch injection of zymosan (1 ml of a 1% suspension in physiological saline). After 3 hours the rats are killed, the air pouches are lavaged with physiological saline, and the specific radioimmunoassay described above is used to assay LTB4 in the washings. This test provides an indication of inhibitory effects against 5-LO in an inflammatory milieu.

One may read the ED50 as the midpoint of the dose-response relation. Regarding `COC1(c2cccc(Sc3ccc4c(c3)n(C)c(=O)n4C)c2)CCOCC1` [Example 1, 4-[3-(1,3-dimethyl-2-oxo-2,3-dihydrobenzimidazol-5-ylthio)phenyl]-4-methoxytetrahydropyran], the ED50 is less than 2 mg/kg.
